Reference: patent US10253038B2, “Fusicoccane derivatives and methods” (Florida State University Research Foundation, Inc., priority 2017, dated 2019)
Blank lines part the entries; values can stand above or below the compound they belong to.

How the values were obtained:
[1] = target: T1, 14-3-3σ•Task-3 ctp interaction (Homo sapiens, UniProt P31947); experiment: Fluorescence polarization (FP) of fluorescein-labeled Task-3 ctp titrated with 14-3-3σ; assay type: binding; details: for screen for functional interaction with 14-3-3σ•Task-3 ctp complex (result in words): library screen of 8a-j, 9-11, FIG. 3
T1 construct: made in house; host or cells: E. coli BL21
Description: (§1) Replicated in this example was Ottmann's characterization of interactions between 14-3-3σ and a synthetic hexapeptide of Task-3 containing the putative C-terminal 14-3-3-interaction motif KRRK-pS-V (Task-3 ctp). (Anders, C. et al., Chem. Biol. 2013, 13, 583-593).
(§2) Recombinant human 14-3-3σ was prepared using a bacterial expression protocol, which routinely produced 15 mg/L of purified protein. Recombinant 14-3-3σ was expressed in BL21 E. Coli cells and purified by Ni-affinity chromatography.
The titration protocol was adapted to 96-well plate format using fluorescence polarization (FP) experiments. FP measurements of fluorescein-labeled Task-3 ctp, in the absence and presence of 100 μM fusicoccin A (1), titrated with 14-3-3σ were used to obtain the apparent Kd of the 14-3-3σ•Task-3 ctp interaction. […] Also collected were FP measurements of fluorescein-labeled c-Raf peptide, in the absence and presence of 100 μM fusicoccin A (1), titrated with 14-3-3σ to obtain the apparent Kd of the 14-3-3σ•c-Raf peptide interaction.
Error bars indicate the mean±SD of three independent experiments.
In view of the foregoing control data, a library of synthetic derivatives, including 8a-j, 9-11, was screened for functional interactions 14-3-3σ•Task-3 ctp complex. […]

[2] = test system: 14-3-3•PMA2 complex; details: background statement; cited from earlier work
[3] = target: T2, 14-3-3σ•Task-3 ctp (Homo sapiens, UniProt P31947); experiment: Isothermal titration calorimetry (ITC) of Task-3 ctp with 14-3-3σ in the presence and absence of fusicoccin A; assay type: binding; details: 100 μM fusicoccin A vs absence
T2 construct: made in house; host or cells: E. coli BL21
Description: as §1, §2
This was determined by the association of ITC binding isotherms for Task-3 ctp with 14-3-3σ in the presence and absence of 100 μM of fusicoccin A (1).

T1 sequence (P31947 whole entry, other chains not shown): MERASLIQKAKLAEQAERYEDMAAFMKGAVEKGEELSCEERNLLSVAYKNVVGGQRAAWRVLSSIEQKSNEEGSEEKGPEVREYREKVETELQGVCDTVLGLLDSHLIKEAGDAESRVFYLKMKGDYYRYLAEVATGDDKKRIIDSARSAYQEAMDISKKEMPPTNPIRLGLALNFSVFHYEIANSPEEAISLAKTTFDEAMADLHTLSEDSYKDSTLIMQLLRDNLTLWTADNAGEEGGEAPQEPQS
T2 sequence (P31947 whole entry, other chains not shown): as above

SMILES: C=C(C)C1=C2[C@H]3C=C[C@]4(CCC[C@H]4C[C@@]2(C)CC1)O3 (racemic) [compound 11]
fold enhancement of apparent affinity of Task-3 ctp to 14-3-3σ ([1]; FP, DMSO (10%) in buffer, 1.6 mM compound): 1.2 fold
screen for functional interaction with 14-3-3σ•Task-3 ctp complex (result in words) [1]: increase the apparent affinity

SMILES: CC1CC(=O)C2C3C=CC4(CCCC4CC12)O3 (racemic) [compound 9, (±)-9-Methyl-1,2,3,6,6a,8,9,9a, 10,10a-decahydro-7H-3a,6-epoxydicyclopenta[a,d] [8]annulen-7-one]
melting point: 88.9 to 91.3 °C

SMILES: C=CC(C)(C)OC[C@H]1O[C@H](O[C@@H]2C3=C([C@H](C)COC(C)=O)C[C@H](O)[C@]3(C)/C=C3/[C@@H](COC)CC[C@H]3[C@@H](C)[C@H]2O)[C@H](O)[C@@H](OC(C)=O)[C@@H]1O [fusicoccin A, reference compound]
prolongation of the lifetime of the 14-3-3•PMA2 complex [2]: 90 fold
fold stabilization of 14-3-3σ•Task-3 ctp [3]: 152 fold
fold enhancement of apparent affinity of Task-3 ctp to 14-3-3σ ([1]; FP, 100 μM fusicoccin A): 37 fold
EC50 ([1]; FP, fluorescein-labeled Task-3 ctp and 14-3-3σ titrated with compound, mean±SD of three experiments, read-out: EC50 of stabilization of the 14-3-3σ•Task-3 ctp complex): 1400 ± 300 nM

More lines, now with the values ahead:

melting point: 50.8 to 51.3 °C
SMILES: O=C1CCC2=C1[C@H]1C=C[C@]3(CCC[C@H]3C2)O1 (racemic) [compound 8a, (±)-1,2,3,6,8,9,10,10a-octahydro-7H-3a,6-epoxydicyclopenta[a,d] [8]annulen-7-one]

fold enhancement of apparent affinity of Task-3 ctp to 14-3-3σ ([1]; FP, DMSO (10%) in buffer, 6.3 mM compound): 1.1 fold
screen for functional interaction with 14-3-3σ•Task-3 ctp complex (result in words) [1]: increase the apparent affinity
SMILES: O=C1CCC2=C1[C@@]1(CN3CCOCC3)C=C[C@]3(CCC[C@H]3C2)O1 [compound 8f]
